Results as given in US10125118B2, “Heteroaryl compounds and their use as therapeutic drugs” (Dong-A Socio Holdings Co., Ltd., priority 2015, dated 2018).

Key:
[1] = tested on: CD8-MerTK in Ba/F3-CDM cells; assay: In cell MER kinase assay, Ba/F3-CDM cell proliferation without IL-3 (Celltiter-Glo); type: cell-based, murine; details: 48 hours compound treatment, read-out: Cell growth inhibition (GI50)
Procedure: To establish an in cell kinase assay for MerTK kinase, the IL-3 dependent Ba/F3 cells of murine lymphoid origin was transfected with CD8-MerTK. […] For a routine cellular assay, Ba/F3-CDM cells were seeded at 2,000 cells per well in 384-well cell culture plate containing DMEM/10% FBS culture media and incubated for 24 hours before addition of compounds pre-diluted in culture media. Following compound treatment, cells were further incubated for 48 hours and the proliferation was measured. To discriminate a Ba/F3 growth inhibition by a specific inhibition of MerTK kinase following compound treatment vs growth inhibition due to a non-specific unintended cytotoxicity of compounds, we routinely carried out control sets of Ba/F3 cells in parallel that grown in IL3-supplemented growth media. In the presence of IL-3, the proliferation of Ba/F3 is no longer dependent on the MerTK activity. Cell growth and proliferation was measured with Celltiter-Glo™ system (Promega, USA) according to the manufacturer's instruction. The half-maximal growth inhibitory concentration (GI50) value was calculated with Prism6.0 software (GraphPad, USA).

[2] = target: human c-MER catalytic domain (Homo sapiens (Human), UniProt Q12866); assay: LanthaScreen TR-FRET kinase assay, c-MER; details: read-out: Mer TK inhibition (IC50); Biochemical IC50, TR-FRET, 10 uM ATP
Chain of human c-MER catalytic domain (Q12866 587-858): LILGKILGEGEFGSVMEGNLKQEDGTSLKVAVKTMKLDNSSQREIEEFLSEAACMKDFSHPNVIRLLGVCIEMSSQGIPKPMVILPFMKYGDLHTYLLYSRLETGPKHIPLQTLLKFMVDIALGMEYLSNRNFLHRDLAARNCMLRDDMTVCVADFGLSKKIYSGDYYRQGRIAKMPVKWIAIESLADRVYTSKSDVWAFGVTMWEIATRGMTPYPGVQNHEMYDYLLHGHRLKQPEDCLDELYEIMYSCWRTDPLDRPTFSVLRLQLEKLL

SMILES | GI50 [1] [nM] | IC50 [2] [nM]
CN1CCN(Cc2ccc(-c3ccc(CO[C@H]4CCC[C@@H]4NC(=O)c4cc(-c5cnn(C)c5)cnc4N)cc3)cc2F)CC1 [Example 195, 2-amino-N-((1S,2S)-2-((3′-fluoro-4′-((4-methylpiperazin-1-yl)-methyl)-[1,1′-biphenyl]-4-yl)methoxy)cyclopentyl)-5-(1-methyl-1H-pyrazol-4-yl)-nicotinamide] | < 100 | < 10
CN1CCN(Cc2c(F)cc(-c3ccc(CO[C@H]4CCC[C@@H]4NC(=O)c4cc(-c5cnn(C)c5)cnc4N)cc3)cc2F)CC1 [Example 196, 2-amino-N-((1S,2S)-2-((3′,5′-difluoro-4′-((4-methylpiperazin-1-yl)methyl)-[1,1′-biphenyl]-4-yl)methoxy)cyclopentyl)-5-(1-methyl-1H-pyrazol-4-yl)nicotinamide] | 100 to 500 | < 10
CN1CCN(Cc2ccc(-c3ccc(CO[C@H]4CCC[C@@H]4NC(=O)c4cc(-c5cnn(C)c5)cnc4N)cc3)cc2C(F)(F)F)CC1 [Example 197, 2-amino-5-(1-methyl-1H-pyrazol-4-yl)-N-((1S,2S)-2-((4′-((4-methylpiperazin-1-yl)methyl)-3′-(trifluoromethyl)-[1,1′-biphenyl]-4-yl)methoxy)-cyclopentyl)nicotinamide] | < 100 | < 10
Cc1cc(-c2ccc(CO[C@H]3CCC[C@@H]3NC(=O)c3cc(-c4cnn(C)c4)cnc3N)cc2)ccc1CN1CCN(C)CC1 [Example 198, 2-amino-5-(1-methyl-1H-pyrazol-4-yl)-N-((1S,2S)-2-((3′-methyl-4′-((4-methylpiperazin-1-yl)methyl)-[1,1′-biphenyl]-4-yl)methoxy)cyclopentyl)-nicotinamide] | < 100 | < 10
CN1CCN(Cc2ccc(-c3ccc(CO[C@H]4CCC[C@@H]4NC(=O)c4cc(-c5cnn(C)c5)cnc4N)cc3)cc2O)CC1 [Example 199, 2-amino-N-((1S,2S)-2-((3′-hydroxy-4′-((4-methylpiperazin-1-yl)methyl)-[1,1′-biphenyl]-4-yl)methoxy)cyclopentyl)-5-(1-methyl-1H-pyrazol-4-yl)nicotinamide] | < 100 | < 10
CN1CCN(Cc2ccc(-c3ccc(CO[C@H]4CCC[C@@H]4NC(=O)c4cc(-c5cnn(C)c5)cnc4N)cc3)cc2[N+](=O)[O-])CC1 [Example 200, 2-amino-5-(1-methyl-1H-pyrazol-4-yl)-N-((1S,2S)-2-((4′-((4-methylpiperazin-1-yl)methyl)-3′-nitro-[1,1′-biphenyl]-4-yl)methoxy)-cyclopentyl)nicotinamide] | 100 to 500 | < 10
CN1CCN(Cc2ccc(-c3ccc(CO[C@H]4CCC[C@@H]4NC(=O)c4cc(-c5cnn(C)c5)cnc4N)cc3)c(Cl)c2)CC1 [Example 202, 2-amino-N-((1S,2S)-2-((2′-chloro-4′-((4-methylpiperazin-1-yl)-methyl)-[1,1′-biphenyl]-4-yl)methoxy)cyclopentyl)-5-(1-methyl-1H-pyrazol-4-yl)-nicotinamide] | 100 to 500 | < 10
CN1CCN(Cc2ccc(-c3ccc(CO[C@H]4CCC[C@@H]4NC(=O)c4cc(-c5cnn(C)c5)cnc4N)cc3)cn2)CC1 [Example 203, 2-amino-5-(1-methyl-1H-pyrazol-4-yl)-N-((1S,2S)-2-((4-(6-((4-methylpiperazin-1-yl)methyl)pyridin-3-yl)benzyl)oxy)cyclopentyl)nicotinamide] | 100 to 500 | < 10
Cn1cc(-c2cnc(N)c(C(=O)N[C@H]3CCC[C@@H]3OCc3ccc(-c4ccc(CN5CCN(CCO)CC5)c(C(F)(F)F)c4)cc3)c2)cn1 [Example 205, 2-amino-N-((1S,2S)-2-((4′-((4-(2-hydroxyethyl)piperazin-1-yl)methyl)-3′-(trifluoromethyl)-[1,1′-biphenyl]-4-yl)methoxy)cyclopentyl)-5-(1-methyl-1H-pyrazol-4-yl)nicotinamide] | < 100 | < 10
Cn1cc(-c2cnc(N)c(C(=O)N[C@H]3CCC[C@@H]3OCc3ccc(-c4ccc(CN5CCN(CCO)CC5)cc4Cl)cc3)c2)cn1 [Example 206, 2-amino-N-((1S,2S)-2-((2′-chloro-4′-((4-(2-hydroxyethyl)-piperazin-1-yl)methyl)-[1,1′-biphenyl]-4-yl)methoxy)cyclopentyl)-5-(1-methyl-1H-pyrazol-4-yl)nicotinamide] | 100 to 500 | < 10
CC(c1ccc(-c2ccc(CO[C@H]3CCC[C@@H]3NC(=O)c3cc(-c4cnn(C)c4)cnc3N)cc2)cc1)N1CCN(C)CC1 (stereo partly drawn) [Example 208, 2-amino-5-(1-methyl-1H-pyrazol-4-yl)-N-((1S,2S)-2-((4′-(1-(4-methylpiperazin-1-yl)ethyl)-[1,1′-biphenyl]-4-yl)methoxy)cyclopentyl)nicotinamide] | < 100 | < 10
CC(c1ccc(-c2ccc(CO[C@H]3CCC[C@@H]3NC(=O)c3cc(-c4cnn(C)c4)cnc3N)cc2)cc1)N1C[C@@H](C)N(C)[C@@H](C)C1 (stereo partly drawn) [Example 209, 2-amino-5-(1-methyl-1H-pyrazol-4-yl)-N-((1S,2S)-2-((4′-(1-((3S,5R)-3,4,5-trimethylpiperazin-1-yl)ethyl)-[1,1′-biphenyl]-4-yl)methoxy)-cyclopentyl)nicotinamide] | < 100 | < 10
CC(c1ccc(-c2ccc(CO[C@H]3CCC[C@@H]3NC(=O)c3cc(-c4cnn(C)c4)cnc3N)cc2)cc1)N1C[C@@H](C)N(CCO)[C@@H](C)C1 (some centres unmarked) [Example 211] | < 100 | < 10
CC(c1c(F)cc(-c2ccc(CO[C@H]3CCC[C@@H]3NC(=O)c3cc(-c4cnn(C)c4)cnc3N)cc2)cc1F)N1CCN(CCO)CC1 (stereo partly drawn) [Example 212, 2-amino-N-((1S,2S)-2-((3′,5′-difluoro-4′-(1-(4-(2-hydroxyethyl)-piperazin-1-yl)ethyl)-[1,1′-biphenyl]-4-yl)methoxy)cyclopentyl)-5-(1-methyl-1H-pyrazol-4-yl)nicotinamide] | > 1000 | < 10
C[C@H](c1ccc(-c2ccc(CO[C@H]3CCC[C@@H]3NC(=O)c3cc(-c4cnn(C)c4)cnc3N)cc2)cc1)N1CCNCC1 [Example 213, 2-amino-5-(1-methyl-1H-pyrazol-4-yl)-N-((1S,2S)-2-((4′-((R)-1-(piperazin-1-yl)ethyl)-[1,1′-biphenyl]-4-yl)methoxy)cyclopentyl)nicotinamide] | 100 to 500 | < 10
C[C@H](c1ccc(-c2ccc(CO[C@H]3CCC[C@@H]3NC(=O)c3cc(-c4cnn(C)c4)cnc3N)cc2)cc1)N1CCN(C)CC1 [Example 214, 2-amino-5-(1-methyl-1H-pyrazol-4-yl)-N-((1S,2S)-2-((4′-((R)-1-(4-methylpiperazin-1-yl)ethyl)-[1,1′-biphenyl]-4-yl)methoxy)cyclopentyl)nicotinamide] | < 100 | < 10
C[C@@H](c1ccc(-c2ccc(CO[C@H]3CCC[C@@H]3NC(=O)c3cc(-c4cnn(C)c4)cnc3N)cc2)cc1)N1CCN(C)CC1 [Example 215, 2-amino-5-(1-methyl-1H-pyrazol-4-yl)-N-((1S,2S)-2-((4′-((S)-1-(4-methylpiperazin-1-yl)ethyl)-[1,1′-biphenyl]-4-yl)methoxy)cyclopentyl)nicotinamide] | < 100 | < 10
Cn1cc(-c2cnc(N)c(C(=O)N[C@H]3CCC[C@@H]3OCc3ccc(-c4ccc(C5(N6CCN(CCO)CC6)CC5)cc4)cc3)c2)cn1 [Example 220, 2-amino-N-((1S,2S)-2-((4′-(1-(4-(2-hydroxyethyl)piperazin-1-yl)cyclopropyl)-[1,1′-biphenyl]-4-yl)methoxy)cyclopentyl)-5-(1-methyl-1H-pyrazol-4-yl)nicotinamide] | < 100 | < 10
C[C@@H](c1ccc(-c2ccc(CO[C@H]3CCC[C@@H]3NC(=O)c3cc(-c4ccc(F)nc4)cnc3N)cc2)cc1)N1CCN(C)CC1 [Example 222, 6-amino-6′-fluoro-N-((1S,2S)-2-((4′-((S)-1-(4-methylpiperazin-1-yl)ethyl)-[1,1′-biphenyl]-4-yl)methoxy)cyclopentyl)-[3,3′-bipyridine]-5-carboxamide] | < 100 | < 10
CN1CCN(C2(c3ccc(-c4ccc(CO[C@H]5CCC[C@@H]5NC(=O)c5cc(-c6ccc(F)nc6)cnc5N)cc4)cc3)CC2)CC1 [Example 224, 6-amino-6′-fluoro-N-((1S,2S)-2-((4′-(1-(4-methylpiperazin-1-yl)cyclopropyl)-[1,1′-biphenyl]-4-yl)methoxy)cyclopentyl)-[3,3′-bipyridine]-5-carboxamide] | 100 to 500 | < 10
CN1CCN(C(C)(C)c2ccc(-c3ccc(CO[C@H]4CCC[C@@H]4NC(=O)c4cc(-c5ccc(F)nc5)cnc4N)cc3)cc2)CC1 [Example 225, 6-amino-6′-fluoro-N-((1S,2S)-2-((4′-(2-(4-methylpiperazin-1-yl)propan-2-yl)-[1,1′-biphenyl]-4-yl)methoxy)cyclopentyl)-[3,3′-bipyridine]-5-carboxamide] | 100 to 500 | < 10
C[C@@H](c1ccc(-c2ccc(CO[C@H]3CCC[C@@H]3NC(=O)c3cc(-c4ccc(F)nc4)cnc3N)cc2)cc1)N1CCN(CCO)CC1 [Example 226, 6-amino-6′-fluoro-N-((1S,2S)-2-((4′-((S)-1-(4-(2-hydroxyethyl)piperazin-1-yl)ethyl)-[1,1′-biphenyl]-4-yl)methoxy)cyclopentyl)-[3,3′-bipyridine]-5-carboxamide] | < 100 | < 10
